Drawing on patent publication US12565673B2, “Methods for the design of nonallosteric sirtuin activating compounds” (Chakrabarti Advanced Technology, LLC, priority 2020, dated 2026), this text covers Kd for one compound.

Usually Kd stands for the concentration at which binding is half-saturated. A lower Kd goes with higher affinity.

This assay has as its target T1, hSirt3^102-399 (Homo sapiens, UniProt Q9NTG7).
T1 construct: hSirt3^102-399 was expressed in E. coli Arctic Express (DE3) cells; His-tag (only implied by the HisTrap / imidazole purification); made in house; host or cells: E. coli Arctic Express (DE3)
T1 sequence (Q9NTG7 102-399): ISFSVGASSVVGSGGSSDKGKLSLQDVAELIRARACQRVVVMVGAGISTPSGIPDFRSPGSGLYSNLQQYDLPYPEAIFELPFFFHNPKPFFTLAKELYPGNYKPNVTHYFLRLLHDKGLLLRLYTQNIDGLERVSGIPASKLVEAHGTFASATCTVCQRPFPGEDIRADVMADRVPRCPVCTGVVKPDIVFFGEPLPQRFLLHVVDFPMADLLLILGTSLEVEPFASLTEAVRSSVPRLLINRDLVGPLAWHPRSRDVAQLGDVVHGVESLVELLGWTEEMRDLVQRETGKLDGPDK
Description: hSirt3 ligand binding assay by microscale thermophoresis (MST). The settings on record: Sirt3.Ac-MnSOD complex (FIG. 9). (In general: In MST a laser heats a spot of the sample, and binding alters the fluorescence response.)
Description: The binding affinities of ligands to complexes in the catalytic mechanism of SIRT3/MnSOD peptide substrate were measured using microscale thermophoresis (MST; FIG. 9, FIG. 10).
Briefly, the protein conjugation was done in 1×PBS pH 7.4, 0.05% Pluronic F-127, and the labeled protein was buffer exchanged into 47 mM Tris-HCl pH 8.0, 129 mM NaCl, 2.5 mM KCl, 0.94 mM MgCl2, 5% DMSO, 0.05% Tween-20. We used 2 nM labeled hSirt3 and titrated with varying concentrations of the modulators in the absence and presence of various concentrations of substrates, products and intermediates. The thermophoresis was measured (excitation/emission 653/672 nm) using a Monolith NT. […] Dissociation constants (Kd) were determined using GraFit7 (Erithacus Software) by nonlinear fitting.

In turn, `C=CCc1ccc(O)c(-c2ccc(O)c(CC=C)c2)c1` [HKL, 5, 3′-Diallyl-2, 4′-dihydroxybiphenyl] gave a Kd of less than 10 µM.
